Where two headings read alike, the source gives them in different places.
What was measured:
ERBB2 = molecular target: T1, ERBB2 (Homo sapiens, UniProt P04626); format: binding; conditions: for remaining binding at 10 µM: read-out: Percent control
T1 construct: purchased DiscoveRx KINOMEscan

MST1R = molecular target: T2, MST1R (Homo sapiens, UniProt Q04912); format: binding; conditions: 10 μM
T2 construct: purchased DiscoveRx KINOMEscan

FGFR1 = FGFR1 (Homo sapiens, UniProt P11362); conditions: 10 μM
KIT(A829P) = KIT(A829P) (Homo sapiens, UniProt P10721, A829P); conditions: 10 μM
Chain of KIT(A829P) (P10721 26-976 A829P): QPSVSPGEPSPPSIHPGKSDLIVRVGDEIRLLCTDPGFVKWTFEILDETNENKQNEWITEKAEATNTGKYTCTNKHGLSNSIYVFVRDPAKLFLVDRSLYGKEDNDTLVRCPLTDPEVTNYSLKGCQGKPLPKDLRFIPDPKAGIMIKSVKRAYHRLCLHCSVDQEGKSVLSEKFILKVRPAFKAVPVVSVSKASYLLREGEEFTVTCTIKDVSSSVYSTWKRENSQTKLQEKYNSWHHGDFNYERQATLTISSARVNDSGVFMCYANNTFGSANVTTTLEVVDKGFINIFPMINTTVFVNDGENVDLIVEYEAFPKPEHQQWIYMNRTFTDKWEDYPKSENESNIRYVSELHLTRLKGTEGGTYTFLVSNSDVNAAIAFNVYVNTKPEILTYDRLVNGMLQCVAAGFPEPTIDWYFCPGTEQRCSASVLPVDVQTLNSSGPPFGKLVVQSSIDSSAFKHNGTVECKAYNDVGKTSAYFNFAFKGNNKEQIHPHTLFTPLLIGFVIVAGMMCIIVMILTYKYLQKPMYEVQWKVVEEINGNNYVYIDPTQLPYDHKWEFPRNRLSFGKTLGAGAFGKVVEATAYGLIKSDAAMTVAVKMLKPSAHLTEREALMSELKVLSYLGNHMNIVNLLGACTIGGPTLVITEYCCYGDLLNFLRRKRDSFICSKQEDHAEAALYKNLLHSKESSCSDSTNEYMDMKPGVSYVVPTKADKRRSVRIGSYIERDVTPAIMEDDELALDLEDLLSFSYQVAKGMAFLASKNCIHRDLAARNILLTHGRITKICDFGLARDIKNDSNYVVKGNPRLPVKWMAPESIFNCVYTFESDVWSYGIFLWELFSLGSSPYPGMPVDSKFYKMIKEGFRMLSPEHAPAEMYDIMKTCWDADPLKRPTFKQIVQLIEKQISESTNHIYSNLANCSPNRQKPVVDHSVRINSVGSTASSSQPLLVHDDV

DDR2 = molecular target: T3, DDR2 (Homo sapiens, UniProt Q16832); conditions: 10 μM
T3 sequence (Q16832 22-855): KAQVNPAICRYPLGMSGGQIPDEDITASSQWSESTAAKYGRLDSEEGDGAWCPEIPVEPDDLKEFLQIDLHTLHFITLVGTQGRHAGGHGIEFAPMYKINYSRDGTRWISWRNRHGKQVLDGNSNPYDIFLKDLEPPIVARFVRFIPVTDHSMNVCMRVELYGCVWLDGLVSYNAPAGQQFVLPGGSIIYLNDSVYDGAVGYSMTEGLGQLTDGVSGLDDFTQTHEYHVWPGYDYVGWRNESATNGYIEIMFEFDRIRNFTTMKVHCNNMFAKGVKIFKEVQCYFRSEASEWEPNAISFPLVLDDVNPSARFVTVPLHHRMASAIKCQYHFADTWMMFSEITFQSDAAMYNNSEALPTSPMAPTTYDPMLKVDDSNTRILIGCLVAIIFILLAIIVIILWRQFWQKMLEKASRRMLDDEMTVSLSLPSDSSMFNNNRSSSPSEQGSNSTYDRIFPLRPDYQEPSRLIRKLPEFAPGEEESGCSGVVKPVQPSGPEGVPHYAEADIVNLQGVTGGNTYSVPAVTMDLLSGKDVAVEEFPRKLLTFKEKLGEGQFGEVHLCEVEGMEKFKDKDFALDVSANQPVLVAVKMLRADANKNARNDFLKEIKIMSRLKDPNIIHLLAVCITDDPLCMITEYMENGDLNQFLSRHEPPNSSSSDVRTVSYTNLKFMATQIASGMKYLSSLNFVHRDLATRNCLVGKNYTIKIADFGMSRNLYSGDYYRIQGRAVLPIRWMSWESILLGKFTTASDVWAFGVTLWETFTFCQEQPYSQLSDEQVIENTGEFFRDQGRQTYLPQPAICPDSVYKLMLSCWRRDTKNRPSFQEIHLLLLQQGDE

RET = RET (Homo sapiens, UniProt P07949); conditions: 10 μM
TIE2 = TIE2 (Homo sapiens, UniProt Q02763); conditions: 10 μM
Chain of TIE2 (Q02763 23-1124): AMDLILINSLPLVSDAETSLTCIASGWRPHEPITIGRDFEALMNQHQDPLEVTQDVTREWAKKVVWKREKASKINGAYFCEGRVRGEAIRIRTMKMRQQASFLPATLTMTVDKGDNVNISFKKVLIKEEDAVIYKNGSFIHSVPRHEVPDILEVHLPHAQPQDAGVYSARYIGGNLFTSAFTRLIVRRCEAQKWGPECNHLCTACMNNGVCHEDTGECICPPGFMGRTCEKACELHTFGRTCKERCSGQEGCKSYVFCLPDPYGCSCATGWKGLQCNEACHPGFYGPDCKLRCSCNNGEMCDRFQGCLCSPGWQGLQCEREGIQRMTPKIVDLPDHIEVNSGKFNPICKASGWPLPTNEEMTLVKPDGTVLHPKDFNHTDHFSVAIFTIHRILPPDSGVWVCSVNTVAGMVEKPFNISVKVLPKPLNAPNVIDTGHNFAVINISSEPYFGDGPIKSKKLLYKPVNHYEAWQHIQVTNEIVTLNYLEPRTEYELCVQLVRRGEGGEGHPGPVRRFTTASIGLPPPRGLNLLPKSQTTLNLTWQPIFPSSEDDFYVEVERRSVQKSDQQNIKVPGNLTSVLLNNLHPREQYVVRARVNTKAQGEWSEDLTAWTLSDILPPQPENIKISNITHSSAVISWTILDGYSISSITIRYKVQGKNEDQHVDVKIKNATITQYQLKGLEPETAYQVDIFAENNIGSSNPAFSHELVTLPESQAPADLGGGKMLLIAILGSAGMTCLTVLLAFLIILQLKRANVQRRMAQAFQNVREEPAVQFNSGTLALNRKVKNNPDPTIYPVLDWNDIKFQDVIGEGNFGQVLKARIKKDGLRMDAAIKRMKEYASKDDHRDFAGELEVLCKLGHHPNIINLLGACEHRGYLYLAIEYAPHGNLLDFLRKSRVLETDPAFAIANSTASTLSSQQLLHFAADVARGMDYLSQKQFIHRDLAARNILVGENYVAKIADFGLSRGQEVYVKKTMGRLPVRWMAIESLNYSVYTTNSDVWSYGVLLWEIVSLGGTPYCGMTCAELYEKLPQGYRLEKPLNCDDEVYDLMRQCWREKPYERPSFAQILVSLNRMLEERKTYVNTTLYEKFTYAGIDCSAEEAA

EPHB6 = molecular target: T4, EPHB6 (Homo sapiens, UniProt O15197); conditions: 10 μM
T4 sequence (O15197 32-1021): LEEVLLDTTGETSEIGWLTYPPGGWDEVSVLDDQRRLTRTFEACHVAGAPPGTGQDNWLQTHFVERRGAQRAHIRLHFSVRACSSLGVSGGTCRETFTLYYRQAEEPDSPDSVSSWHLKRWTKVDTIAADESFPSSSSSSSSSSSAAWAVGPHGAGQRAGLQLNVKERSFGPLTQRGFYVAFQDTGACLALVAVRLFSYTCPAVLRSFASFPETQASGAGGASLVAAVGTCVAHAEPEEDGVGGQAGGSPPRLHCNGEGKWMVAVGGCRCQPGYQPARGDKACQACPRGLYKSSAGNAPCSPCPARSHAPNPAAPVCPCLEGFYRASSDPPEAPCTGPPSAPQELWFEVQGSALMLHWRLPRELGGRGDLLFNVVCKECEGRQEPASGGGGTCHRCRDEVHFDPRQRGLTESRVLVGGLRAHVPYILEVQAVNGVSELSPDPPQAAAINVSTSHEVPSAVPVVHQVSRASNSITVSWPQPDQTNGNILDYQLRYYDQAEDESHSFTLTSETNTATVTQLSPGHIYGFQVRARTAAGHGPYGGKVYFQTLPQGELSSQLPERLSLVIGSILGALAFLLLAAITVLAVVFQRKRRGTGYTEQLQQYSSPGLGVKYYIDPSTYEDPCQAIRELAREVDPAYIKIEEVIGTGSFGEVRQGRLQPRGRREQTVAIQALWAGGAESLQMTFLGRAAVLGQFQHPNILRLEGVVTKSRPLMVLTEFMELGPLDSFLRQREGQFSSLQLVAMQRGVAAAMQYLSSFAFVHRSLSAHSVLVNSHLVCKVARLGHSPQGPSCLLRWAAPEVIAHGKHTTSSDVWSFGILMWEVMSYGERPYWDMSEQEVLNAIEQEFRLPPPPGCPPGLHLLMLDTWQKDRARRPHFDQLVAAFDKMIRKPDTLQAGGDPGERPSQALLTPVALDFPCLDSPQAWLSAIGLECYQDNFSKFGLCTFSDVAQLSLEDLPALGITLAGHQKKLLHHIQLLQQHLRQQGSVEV

T1 sequence (P04626 23-1255): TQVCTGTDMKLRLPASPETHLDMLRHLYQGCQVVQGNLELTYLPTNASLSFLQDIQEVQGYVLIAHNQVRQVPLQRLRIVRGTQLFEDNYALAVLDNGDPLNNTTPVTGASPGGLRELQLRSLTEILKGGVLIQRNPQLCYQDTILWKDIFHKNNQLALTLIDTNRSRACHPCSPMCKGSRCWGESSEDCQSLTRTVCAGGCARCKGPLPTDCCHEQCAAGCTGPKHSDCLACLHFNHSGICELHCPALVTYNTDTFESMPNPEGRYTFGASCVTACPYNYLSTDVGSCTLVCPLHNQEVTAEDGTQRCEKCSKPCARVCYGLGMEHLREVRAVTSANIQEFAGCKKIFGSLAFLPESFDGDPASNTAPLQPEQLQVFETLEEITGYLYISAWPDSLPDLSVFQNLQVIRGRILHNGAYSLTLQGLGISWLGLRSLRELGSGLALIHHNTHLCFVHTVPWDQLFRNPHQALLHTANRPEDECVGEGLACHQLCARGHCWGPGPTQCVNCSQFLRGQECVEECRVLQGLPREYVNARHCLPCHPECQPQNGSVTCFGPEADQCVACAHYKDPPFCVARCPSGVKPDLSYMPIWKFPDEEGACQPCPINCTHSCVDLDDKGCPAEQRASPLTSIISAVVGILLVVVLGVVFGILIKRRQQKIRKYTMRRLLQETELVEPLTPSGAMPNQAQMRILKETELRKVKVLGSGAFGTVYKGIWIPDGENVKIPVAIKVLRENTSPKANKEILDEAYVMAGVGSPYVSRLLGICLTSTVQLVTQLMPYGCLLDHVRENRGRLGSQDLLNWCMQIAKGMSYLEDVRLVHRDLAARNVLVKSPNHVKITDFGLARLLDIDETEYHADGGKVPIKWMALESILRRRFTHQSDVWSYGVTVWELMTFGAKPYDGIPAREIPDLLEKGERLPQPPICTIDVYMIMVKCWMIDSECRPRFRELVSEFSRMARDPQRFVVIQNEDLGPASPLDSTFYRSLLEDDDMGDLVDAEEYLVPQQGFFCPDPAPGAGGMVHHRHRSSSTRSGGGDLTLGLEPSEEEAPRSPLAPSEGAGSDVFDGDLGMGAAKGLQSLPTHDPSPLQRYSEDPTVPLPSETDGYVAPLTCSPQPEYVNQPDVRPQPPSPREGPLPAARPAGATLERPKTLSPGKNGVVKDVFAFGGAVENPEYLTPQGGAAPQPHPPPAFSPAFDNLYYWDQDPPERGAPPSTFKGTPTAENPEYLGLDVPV
T2 sequence (Q04912 25-1400): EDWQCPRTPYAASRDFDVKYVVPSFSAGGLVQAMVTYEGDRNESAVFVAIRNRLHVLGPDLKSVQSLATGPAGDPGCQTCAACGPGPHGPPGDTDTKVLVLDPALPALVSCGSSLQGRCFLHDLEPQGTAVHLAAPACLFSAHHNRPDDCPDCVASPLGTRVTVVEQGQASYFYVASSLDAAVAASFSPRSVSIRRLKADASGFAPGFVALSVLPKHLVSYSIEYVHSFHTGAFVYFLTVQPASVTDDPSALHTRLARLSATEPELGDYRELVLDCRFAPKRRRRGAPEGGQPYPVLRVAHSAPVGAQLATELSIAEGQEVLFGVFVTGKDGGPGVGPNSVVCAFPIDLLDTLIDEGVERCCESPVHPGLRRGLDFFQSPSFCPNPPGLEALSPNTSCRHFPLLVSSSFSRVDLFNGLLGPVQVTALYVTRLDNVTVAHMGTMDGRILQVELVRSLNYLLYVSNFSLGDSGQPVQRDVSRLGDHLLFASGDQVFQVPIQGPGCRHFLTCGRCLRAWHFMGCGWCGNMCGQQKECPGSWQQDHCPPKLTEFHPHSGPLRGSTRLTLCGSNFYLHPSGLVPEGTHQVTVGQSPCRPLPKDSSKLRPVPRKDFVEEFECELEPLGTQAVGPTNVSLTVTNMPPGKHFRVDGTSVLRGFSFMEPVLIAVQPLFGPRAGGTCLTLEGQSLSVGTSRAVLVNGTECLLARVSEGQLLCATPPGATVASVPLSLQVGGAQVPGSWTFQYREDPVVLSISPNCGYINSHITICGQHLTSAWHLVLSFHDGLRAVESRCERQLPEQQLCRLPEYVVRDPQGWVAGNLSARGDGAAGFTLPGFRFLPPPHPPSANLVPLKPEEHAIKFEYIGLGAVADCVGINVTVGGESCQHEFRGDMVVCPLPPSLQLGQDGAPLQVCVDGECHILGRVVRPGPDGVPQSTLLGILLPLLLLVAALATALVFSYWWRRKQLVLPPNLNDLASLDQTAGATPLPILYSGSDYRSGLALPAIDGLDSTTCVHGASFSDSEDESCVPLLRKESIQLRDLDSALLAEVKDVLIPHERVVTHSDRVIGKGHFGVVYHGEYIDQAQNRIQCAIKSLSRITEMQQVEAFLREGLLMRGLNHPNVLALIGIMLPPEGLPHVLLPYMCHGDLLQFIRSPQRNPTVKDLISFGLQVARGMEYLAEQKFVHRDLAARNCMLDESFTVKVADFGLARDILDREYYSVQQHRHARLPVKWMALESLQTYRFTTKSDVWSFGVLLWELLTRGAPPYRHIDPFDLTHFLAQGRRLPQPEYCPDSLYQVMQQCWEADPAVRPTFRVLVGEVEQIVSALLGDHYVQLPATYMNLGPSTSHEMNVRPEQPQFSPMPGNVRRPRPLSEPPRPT

Compound	remaining binding at 10 µM (ERBB2)	Percent control (MST1R)	Percent control (FGFR1)	Percent control (ERBB2; ERBB2, 10 μM)	Percent control (KIT(A829P))	Percent control (DDR2)	Percent control (RET)	Percent control (TIE2)	Percent control (EPHB6)	remaining binding at 10 µM (ERBB2; ERBB2, 10 μM)
C#Cc1cccc(Nc2ncnc3cc(OCCOC)c(OCCOC)cc23)c1 [Erlotinib]	22.5%	–	–	–	–	–	–	–	–	–
Cc1ccc(NC(=O)c2ccc(CN3CCN(C)CC3)cc2)cc1Nc1nccc(-c2cccnc2)[n+]1[Pt-2]1([Cl])[NH2+]C2CCCCC2[NH2+]1 (stereo not drawn) [1b, oxaliplatin-imatinib]	–	100%	96%	82%	5%	10%	95%	94%	92%	–
Cc1ccc(NC(=O)c2ccc(CN3CCN(C)CC3)cc2)cc1Nc1nccc(-c2cccnc2)n1 [Imatinib, reference compound]	–	100%	100%	100%	–	0.1%	100%	100%	100%	–
COc1cc2c(Nc3ccc(Br)cc3F)ncnc2cc1OCC1CCN(C)CC1 [Vandetanib, reference compound]	–	–	–	–	–	–	–	–	–	20.6%
COc1cc2c(Nc3ccc(Br)cc3F)[n+]([Pt-2]3([Cl])[NH2+]C4CCCCC4[NH2+]3)cnc2cc1OCC1CCN(C)CC1 (stereo not drawn) [3b, oxaliplatin-vandetanib]	–	100%	–	–	2.7%	0.21%	–	49%	2.5%	–
C#Cc1cccc(Nc2c3cc(OCCOC)c(OCCOC)cc3nc[n+]2[Pt@SP2-2]([NH3+])([NH3+])[Cl])c1 [2a, cisplatin-erlotinib]	–	100%	77%	21%	56%	100%	46%	94%	76%	–
